This is an account of results in ChEMBL document CHEMBL2331518, “Rapid microwave-enhanced synthesis of C5-alkynyl pyranonucleosides as novel cytotoxic antitumor agents” (Bioorg Med Chem Lett, 2013).

Experiment [1] has as its system Influenza A virus. The experiment in a line: Antiviral activity against Influenza A virus H3N2 by cell based assay. The experiment is classed as functional, organism-based.
Experiment [2] deals with Human alphaherpesvirus 1. The experiment can be described thus: Antiviral activity against HSV-1 KOS by cell based assay. The experiment is classed as functional, organism-based.
Experiment [3] relates to Mammalian orthoreovirus 1. The experiment can be described thus: Antiviral activity against Reovirus-1 by cell based assay. The experiment is classed as functional, organism-based.
The subject of experiment [4] is Coxsackievirus B4. The experiment in a line: Antiviral activity against Coxsackie virus B4 by cell based assay. The experiment is classed as functional, organism-based.
For experiment [5], the system named is Human respirovirus 3. The experiment in a line: Antiviral activity against Parainfluenza-3 virus by cell based assay. The experiment is classed as functional, organism-based.
In experiment [6] the test system is Human alphaherpesvirus 1. The experiment in a line: Antiviral activity against kinase-deficient acyclovir-resistant HSV-1 KOS by cell based assay. The experiment is classed as functional, organism-based.
In experiment [7] the test system is HeLa. The experiment can be described thus: Cytotoxicity against human HeLa cells after 72 hrs. The experiment is classed as functional, cell-based.
In experiment [8] the test system is Vaccinia virus. The experiment can be described thus: Antiviral activity against Vaccinia virus Lederle by cell based assay. The experiment is classed as functional, organism-based. Particulars: Orthopoxvirus vaccinia.
The subject of experiment [9] is Influenza A virus. The experiment in a line: Antiviral activity against Influenza A virus H1N1 by cell based assay. The experiment is classed as functional, organism-based.
Experiment [10] relates to Punta Toro virus. The experiment can be described thus: Antiviral activity against Punta Toro virus by cell based assay. The experiment is classed as functional, organism-based.
Experiment [11] concerns Respiratory syncytial virus. The experiment in a line: Antiviral activity against Respiratory syncytial virus Long by cell based assay. The experiment is classed as functional, organism-based.
The test system of experiment [12] is Human immunodeficiency virus 2. The experiment can be described thus: Antiviral activity against HIV2 ROD infected in human CEM cells assessed as reduction of virus-induced cytopathicity after 4 to 5 days. The experiment is classed as functional, organism-based. Particulars: ISOLATE ROD, CCRF-CEM.
For experiment [13], the system named is Human immunodeficiency virus 1. The experiment in a line: Antiviral activity against HIV1 3B infected in human CEM cells assessed as reduction of virus-induced cytopathicity after 4 to 5 days. The experiment is classed as functional, organism-based. Particulars: CCRF-CEM. (In general: Damage to the host cells serves as the signal in cytopathic effect assays.)

The test system of experiment [14] is Human alphaherpesvirus 2. The experiment can be described thus: Antiviral activity against HSV-2 Lyons by cell based assay. The experiment is classed as functional, organism-based.
Experiment [15] concerns Influenza B virus. The experiment can be described thus: Antiviral activity against Influenza B virus by cell based assay. The experiment is classed as functional, organism-based.
Experiment [16] concerns Human alphaherpesvirus 2. The experiment in a line: Antiviral activity against HSV-2 G by cell based assay. The experiment is classed as functional, organism-based. Particulars: strain G.
Experiment [17] concerns L1210. The experiment can be described thus: Cytotoxicity against mouse L1210 cells after 48 hrs. The experiment is classed as functional, cell-based. Particulars: L1210, 48 h.
In experiment [18] the test system is CCRF-CEM. The experiment can be described thus: Cytotoxicity against human CEM cells after 72 hrs. The experiment is classed as functional, cell-based.
The test system of experiment [19] is Sindbis virus. The experiment can be described thus: Antiviral activity against Sindbis virus by cell based assay. The experiment is classed as functional, organism-based.
Experiment [20] has as its system Vesicular stomatitis virus. The experiment can be described thus: Antiviral activity against Vesicular stomatitis virus by cell based assay. The experiment is classed as functional, organism-based.

pIC50: −log10 of the molar value. The source made the active and inactive calls. No cut-off for these calls is given here.

One may read the pIC50 as the IC50 on a negative log10 scale, so that one unit is a factor of ten. Lower therefore signals a high IC50. As to `O=c1nc(O)c(C#Cc2ccccc2)cn1[C@@H]1O[C@H](CO)[C@@H](O)[C@H](O)[C@H]1O`, the outcome in experiment [1], in experiment [2], in experiment [3], in experiment [4], in experiment [5] and in experiment [6] was inactive. For the same molecule, the outcome in experiment [8], in experiment [9], in experiment [10], in experiment [11], in experiment [12] and in [13] was inactive. Further, the result in experiment [14], in experiment [15], in experiment [16], in experiment [19] and in [20] was inactive. Also, the values for the negative-log IC50 (pIC50) in experiment [7], in experiment [17] and in [18] were 5.27, 5.21 and 5.28, respectively.
For the molecule `Nc1nc(=O)n([C@@H]2O[C@H](CO)[C@@H](O)[C@H](O)[C@H]2O)cc1C#Cc1ccccc1`, the values for the pIC50 in experiment [7], in [17] and in [18] were 3.70, at most 3.60 and below 3.60, respectively.
On the same counts, the results for `CCCC#Cc1cn([C@@H]2O[C@H](CO)[C@@H](O)[C@H](O)[C@H]2O)c(=O)[nH]c1=O` are 4.02, 3.94 and 3.91.
`CCCc1cc2cn([C@@H]3O[C@H](CO)[C@@H](O)[C@H](O)[C@H]3O)c(=O)nc2o1`: the result in experiment [1], in [2], in [3], in experiment [4], in [5] and in experiment [6] was inactive. Besides, the outcome in experiment [8], in experiment [9], in experiment [10], in experiment [11], in experiment [12] and in experiment [13] was inactive. Moreover, the outcome in [14], in experiment [15], in experiment [16], in experiment [19] and in experiment [20] was inactive. Further, the results for the negative logarithm of the IC50 (pIC50) in [7], in [17] and in [18] were 3.90, 3.88 and 3.76, respectively.
On to `CC(=O)OC[C@H]1O[C@@H](n2cc(C#Cc3ccc[n+](C)c3)c(=O)[nH]c2=O)[C@H](OC(C)=O)[C@@H](OC(C)=O)[C@@H]1OC(C)=O`, for which the pIC50 in experiment [7], in [17] and in experiment [18] was below 3.60 in each case.
Take `C[n+]1ccccc1C#Cc1cn([C@@H]2O[C@H](CO)[C@@H](O)[C@H](O)[C@H]2O)c(=O)[nH]c1=O`: the result in experiment [1], in [2], in experiment [3], in experiment [4], in [5] and in [6] was inactive. In addition, the outcome in experiment [8], in experiment [9], in experiment [10], in experiment [11], in experiment [12] and in [13] was inactive. Besides, the outcome in experiment [14], in experiment [15], in experiment [16], in experiment [19] and in experiment [20] was inactive. The negative logarithm of the IC50 (pIC50) was 3.61 in [7], 3.82 in experiment [17] and below 3.60 in [18].
As for `CCCCCC#Cc1cn([C@@H]2O[C@H](CO)[C@@H](O)[C@H](O)[C@H]2O)c(=O)nc1N`, the pIC50 in experiment [7] is at most 3.60; in experiment [17], at most 3.60; in [18] it was below 3.60.
In the case of `CC(=O)OC[C@H]1O[C@@H](n2cc(C#Cc3cccc[n+]3C)c(=O)[nH]c2=O)[C@H](OC(C)=O)[C@@H](OC(C)=O)[C@@H]1OC(C)=O`, the negative logarithm of the IC50 (pIC50) in [7] is 3.63; in [17] it was 3.69; in experiment [18], below 3.60.
On the same counts, the results for `CCCCCC#Cc1cn([C@@H]2O[C@H](CO)[C@@H](O)[C@H](O)[C@H]2O)c(=O)[nH]c1=O` are 4.54, 4.66 and 4.59.
For the molecule `O=c1[nH]c(=O)n([C@@H]2O[C@H](CO)[C@@H](O)[C@H](O)[C@H]2O)cc1CCc1ccccc1`, the pIC50 in [7] was 4.37; in [17], 3.52; in experiment [18] it was 3.61.
In the case of `CCCCCc1ccc(C#Cc2cn([C@@H]3O[C@H](CO)[C@@H](O)[C@H](O)[C@H]3O)c(=O)nc2O)cc1`, the figures for the pIC50 in experiment [7], in experiment [17] and in [18] were 4.51, 4.15 and 4.09, respectively.
On the same counts, the results for `CCCCCc1ccc(C#Cc2cn([C@@H]3O[C@H](CO)[C@@H](O)[C@H](O)[C@H]3O)c(=O)nc2N)cc1` are 4.37, 3.88 and 3.94.
On the same counts, the results for `C#Cc1cn([C@@H]2O[C@H](CO)[C@@H](O)[C@H](O)[C@H]2O)c(=O)[nH]c1=O` are 3.64, 3.85 and below 3.60.
The corresponding values for `CCCC#Cc1cn([C@@H]2O[C@H](CO)[C@@H](O)[C@H](O)[C@H]2O)c(=O)nc1N` are 3.72, at most 3.60 and below 3.60.
As for `CC(=O)OC[C@H]1O[C@@H](n2cc(C#Cc3ccccn3)c(=O)[nH]c2=O)[C@H](OC(C)=O)[C@@H](OC(C)=O)[C@@H]1OC(C)=O`, the pIC50 in experiment [7] was 4.05; in [17], 3.94; in experiment [18], 3.86.
On the same counts, the results for `CC(=O)OC[C@H]1O[C@@H](n2cc(C#Cc3cccnc3)c(=O)[nH]c2=O)[C@H](OC(C)=O)[C@@H](OC(C)=O)[C@@H]1OC(C)=O` are below 3.60, below 3.60 and 3.74.
On the same counts, the results for `CC(C)(C)c1ccc(C#Cc2cn([C@@H]3O[C@H](CO)[C@@H](O)[C@H](O)[C@H]3O)c(=O)nc2N)cc1` are 3.85, below 3.60 and below 3.60.
`CC(C)(C)c1ccc(C#Cc2cn([C@@H]3O[C@H](CO)[C@@H](O)[C@H](O)[C@H]3O)c(=O)nc2O)cc1`: the negative-log IC50 (pIC50) is 4.43 in [7], 3.73 in [17] and below 3.60 in experiment [18].
The corresponding values for `C#Cc1cn([C@@H]2O[C@H](CO)[C@@H](O)[C@H](O)[C@H]2O)c(=O)nc1N` are at most 3.60, at most 3.60 and below 3.60.
